The record followed here is US8227409B2, “Diketopiperazine microparticles with defined isomer contents” (MannKind Corporation, priority 2009, dated 2012).

Series [1] is described as follows: Laser diffraction of powder emitted from dry powder inhalers: VMGD and container emptying. The class given is physicochemical. To be noted: 56% trans, SSA 55, pressure drop 4 kPa. The source says: Laser diffraction of dry powder formulations emitted from dry powder inhalers is a common methodology employed to characterize the level of de-agglomeration subjected to a powder. The methodology indicates a measure of geometric size rather than aerodynamic size as occurring in industry standard impaction methodologies. Typically, the geometric size of the emitted powder includes a volumetric distribution characterized by the median particle size, VMGD. Importantly, geometric sizes of the emitted particles are discerned with heightened resolution as compared to the aerodynamic sizes provided by impaction methods. Smaller sizes are preferred and result in greater likelihood of individual particles being delivered to the pulmonary tract. Thus, differences in inhaler de-agglomeration and ultimate performance can be easier to resolve with diffraction. In these experiments, inhalers were tested with laser diffraction at pressures analogous to actual patient inspiratory capacities to determine the effectiveness of the inhalation system to de-agglomerate powder formulations. Specifically, the formulations included cohesive diketopiperazine powders with an active insulin loaded ingredient and without. […] Reported in Table 6 are a VMGD and an efficiency of the container emptying during the testing. FDKP powders have an approximate Carr's index of 50 and TI powder has an approximate Carr's index of 40.

The nature of series [2]: Solubility (stated in words). The class given is physicochemical.

As for `O=C(O)/C=C/C(=O)NCCCCC1NC(=O)C(CCCCNC(=O)/C=C/C(=O)O)NC1=O` (stereo not drawn) [FDKP, 2,5-diketo-3,6-bis(N-fumaryl-4-aminobutyl)piperazine], the “% CE” value in series [1] (DPI 2) is 92.5%; in series [1] (MedTone) it was 89.5%. Besides, the VMGD in series [1] (DPI 2) is on record as 6.800 micron; in series [1] (MedTone), 21.200 micron. In addition, the figures for the solubility entry in series [2] (at neutral or basic pH) and in series [2] (in acid) were “readily soluble” and “low solubility”, respectively.
